Measured values reported in patent US20160186066A1, “METHODS AND SYSTEMS FOR PROCESSING CELLULOSIC BIOMASS” (priority 2014, published 2016).
Read-outs that look alike come from different tables or passages of the source.

Legend:
[1] = MIBC re-extraction (step #2) of layer from initial MIBC extraction (Example 4); assay type: physicochemical
Protocol: One part of the upper organic-rich upper layer from Example 3 was removed prior to distillation, extracted with one part by weight of MIBC solvent, by shaking for 3 minutes in a vial via mechanical shaker, followed by allowing to phase separate overnight at 25° C.
Extraction efficiency as measured by the partition coefficient K increased with increasing carbon number for the light alcohol. Glycols EG and PG were not extracted.

[2] = 3 min
Protocol: (§1) The reaction product mixture was extracted with one part of by weight solvent, with mixing for a minimum of three minutes, followed by phase separation overnight at 25° C.

[3] = Solubility of MPP in deionized water (turbidity); assay type: physicochemical; settings: 1 wt % solution, room temperature
[4] = Extraction of phenols from 1% aqueous solution with toluene or heptane (Examples 5E-5H); settings: for amount remaining in / lost to the aqueous phase: Ex 5F, 1% MPP in water extracted with heptane; for amount left in / lost to the aqueous layer: Ex 5G, 1% m-cresol solution extracted with toluene
[5] = Comparison of extraction solvents on simulated aqueous reaction product mixture (Examples 5A-5D)
Protocol: as §1

OCCO [EG, ethylene glycol]
Extr #2 % extract [1]: not extracted

CC(C)CC(C)O (stereo not drawn) [MIBC, methylisobutylcarbinol]
oil/water partition coefficient of extraction solvent components [2]: 48

CCCc1ccc(O)c(OC)c1 [MPP, 2-methoxy-4-propylphenol]
solubility in deionized water (turbidity) [3]: only partial solubility
partition coefficient, weight percent in organic layer extract vs. lower layer aqueous fraction ([4]; Ex 5E, 1 wt % MPP in water extracted with one part toluene): 161.7
amount remaining in / lost to the aqueous phase [4]: 0.08 wt %
partition coefficient for distribution of extraction solvent between organic and aqueous layers ([5]; Ex 5B, MPP as extraction solvent): 612
oil/water partition coefficient of extraction solvent components ([5]; Ex 5C, MPP/MIBC mixture as extraction solvent): 462

CC(O)CO (stereo not drawn) [PG, 1,2-propylene glycol]
Extr #2 % extract [1]: not extracted

Cc1cccc(O)c1 [cresol, meta-cresol]
amount left in / lost to the aqueous layer [4]: 0.05 wt %

CCCCCCC [heptane]
amount remaining in / lost to the aqueous phase [4]: 0.07 wt %
lost to the aqueous layer ([4]; Ex 5H, 1% m-cresol solution extracted with heptane): 0.015%

Cc1ccccc1 [toluene]
amount left in / lost to the aqueous layer [4]: 0.04 wt %
